The results in this text go back to patent publication US11155517B2, “4-substituted phenylamine derivatives and their use to protect crops by fighting undesired phytopathogenic micoorganisms” (PI INDUSTRIES LTD., priority 2016, dated 2021).

Assay type in all cases: cell-based
One assay relates to Colletotrichum capsici. The experiment in a line: Colletotrichum capsici (anthracnose) in vitro test, radial growth on Potato Dextrose Agar. The settings on record: Colletotrichum truncatum, 168 h; 300 ppm; seven days, 25° C.; read-out: % control compared to the untreated check (radial growth).
In the next assay the test system is Rhizoctonia solani. The experiment in a line: Rhizoctonia solani (rice sheath blight/potato black scurf) in vitro test, radial growth on Potato Dextrose Agar. Conditions: 168 h, 300 ppm, seven days, 25° C., read-out: % control compared to the untreated check (radial growth).
The subject of the next assay is Alternaria solani. The experiment in a line: Alternaria solani (early blight of tomato/potato) in vitro test, radial growth on Potato Dextrose Agar. Conditions: 168 h, 300 ppm, seven days, 25° C., read-out: % control compared to the untreated check (radial growth).
The test system of a further assay is Pyricularia oryzae. As to the kind of experiment: microbe, parasite or virus in culture. The settings on record: 168 h, read-out: % control compared to the untreated check (radial growth).
Another assay concerns Botrytis cinerea. The experiment in a line: Botrytis cinerea (gray mold) in vitro test, radial growth on Potato Dextrose Agar. The settings on record: 168 h, 300 ppm, seven days, 22° C., read-out: % (control) compared to the untreated check (radial growth).

Turning to `CCN(C)C=Nc1cc(C)c(Cc2ccccc2C)cc1Cl` [Compound 122, N′-(2-chloro-5-methyl-4-(2-methylbenzyl)phenyl)-N-ethyl-N-methylformimidamide], the inhibition of growth at 300 ppm with Colletotrichum capsici is more than 80%; with Rhizoctonia solani it was more than 80%; with Alternaria solani it was more than 75%; in the assay on Pyricularia oryzae it was more than 75%.

On to `CCN(C)C=Nc1cc(C)c(C(C#N)c2ccccc2)cc1C` (stereo not drawn) [Compound 127, N′-(4-(cyano(phenyl)methyl)-2,5-dimethylphenyl)-N-ethyl-N-methylformimidamide], for which the inhibition of growth at 300 ppm in the assay on Colletotrichum capsici was more than 80%; in the assay with Rhizoctonia solani, more than 80%; in the assay with Alternaria solani it was more than 75%; in the assay with Pyricularia oryzae, more than 75%.

`CCN(C)C=Nc1cc(Cl)c(Cc2cccc(OC(F)(F)F)c2)cc1Cl` [Compound 182, N′-(2,5-dichloro-4-(3-(trifluoromethoxy)benzyl)phenyl)-N-ethyl-N-methylformimidamide]: the inhibition of growth at 300 ppm in the assay with Rhizoctonia solani is more than 80%; with Alternaria solani, more than 75%; with Pyricularia oryzae, more than 75%; with Botrytis cinerea, more than 80%.

With `CCN(C)C=Nc1cc(C)c(Cc2cccc(C(F)(F)F)c2)cc1F` [Compound 205, N-ethyl-N′-(2-fluoro-5-methyl-4-(3-(trifluoromethyl)benzyl)phenyl)-N-methylformimidamide], the inhibition of growth at 300 ppm is more than 80% in the assay with Colletotrichum capsici, more than 80% with Rhizoctonia solani, more than 75% in the assay on Alternaria solani and more than 75% in the assay on Pyricularia oryzae.

In the case of `CCN(C)C=Nc1cc(C#N)c(Cc2ccccc2F)cc1C` [Compound 247, N′-(5-cyano-4-(2-fluorobenzyl)-2-methylphenyl)-N-ethyl-N-methylformimidamide], the inhibition of growth at 300 ppm in the assay on Rhizoctonia solani was more than 80%; in the assay on Alternaria solani it was more than 75%; in the assay with Pyricularia oryzae, more than 75%; with Botrytis cinerea, more than 80%.

For the compound `CCN(C)C=Nc1cc(C)c(Cc2ccccc2C#N)cc1Cl` [Compound 100, N′-(2-chloro-4-(2-cyanobenzyl)-5-methylphenyl)-N-ethyl-N-methylformimidamide], the inhibition of growth at 300 ppm is more than 80% with Colletotrichum capsici, more than 80% in the assay with Rhizoctonia solani, more than 75% in the assay on Alternaria solani and more than 75% with Pyricularia oryzae.

`CCN(C)C=Nc1cc(C)c(Cc2c(F)cccc2F)cc1Cl` [Compound 203, N′-(2-chloro-4-(2,6-difluorobenzyl)-5-methylphenyl)-N-ethyl-N-methylformimidamide]: the inhibition of growth at 300 ppm in the assay on Colletotrichum capsici was more than 80%; with Alternaria solani, more than 75%; in the assay with Pyricularia oryzae, more than 75%.

As for `Cc1cc(N=CN2CCCCC2)c(Cl)cc1Cc1cccc(F)c1` [Compound 39, N-(2-chloro-4-(3-fluorobenzyl)-5-methylphenyl)-1-(piperidin-1-yl)methanimine], the inhibition of growth at 300 ppm in the assay with Colletotrichum capsici was more than 80%; with Rhizoctonia solani it was more than 80%; in the assay with Alternaria solani, more than 75%; in the assay on Pyricularia oryzae it was more than 75%.

For `CCN(C)C=Nc1cc(Cl)c(Cc2cccc(Cl)c2)cc1Cl` [Compound 152, N′-(2,5-dichloro-4-(3-chlorobenzyl)phenyl)-N-ethyl-N-methylformimidamide], the inhibition of growth at 300 ppm in the assay with Rhizoctonia solani was more than 80%; with Alternaria solani, more than 75%; in the assay with Pyricularia oryzae it was more than 75%; in the assay on Botrytis cinerea, more than 80%.

`CCN(C)C=Nc1c(C)cc(Cc2ccc(C3CC3)cc2)c(C)c1C1CC1` [Compound 267, N′-(2-cyclopropyl-4-(4-cyclopropylbenzyl)-3,6-dimethylphenyl)-N-ethyl-N-methylformimidamide]: the inhibition of growth at 300 ppm is more than 80% in the assay on Rhizoctonia solani, more than 75% in the assay with Alternaria solani, more than 75% in the assay on Pyricularia oryzae and more than 80% in the assay with Botrytis cinerea.

In the case of `CCN(C)C=Nc1cc(C)c(Cc2cccc(C(C)C#N)c2)cc1C` (stereo not drawn) [Compound 107, N′-(4-(3-(1-cyanoethyl)benzyl)-2,5-dimethylphenyl)-N-ethyl-N-methylformimidamide], the inhibition of growth at 300 ppm in the assay on Colletotrichum capsici is more than 80%; with Rhizoctonia solani, more than 80%; in the assay on Alternaria solani, more than 75%; with Pyricularia oryzae, more than 75%; in the assay with Botrytis cinerea, more than 80%.

Regarding `CCN(C)C=Nc1cc(C)c(Cc2cccc(OC(F)(F)F)c2)cc1Cl` [Compound 124, N′-(2-chloro-5-methyl-4-(3-(trifluoromethoxy)benzyl)phenyl)-N-ethyl-N-methylformimidamide], the inhibition of growth at 300 ppm in the assay with Colletotrichum capsici was more than 80%; in the assay with Rhizoctonia solani it was more than 80%; in the assay with Alternaria solani it was more than 75%; in the assay on Pyricularia oryzae it was more than 75%; in the assay with Botrytis cinerea it was more than 80%.

As for `CCN(C)C=Nc1cc(C(F)(F)F)c(Cc2cccc(F)c2)cc1F` [Compound 230, N-ethyl-N′-(2-fluoro-4-(3-fluorobenzyl)-5-(trifluoromethyl)phenyl)-N-methylformimidamide], the inhibition of growth at 300 ppm in the assay with Rhizoctonia solani is more than 80%; in the assay on Alternaria solani, more than 75%; in the assay with Pyricularia oryzae it was more than 75%; in the assay with Botrytis cinerea, more than 80%.

In the case of `CCN(C)C=Nc1cc(C#N)c(Cc2cccc(C)c2)cc1C` [Compound 251, N′-(5-cyano-2-methyl-4-(3-methylbenzyl)phenyl)-N-ethyl-N-methylformimidamide], the inhibition of growth at 300 ppm was more than 80% with Rhizoctonia solani, more than 75% in the assay on Alternaria solani, more than 75% in the assay with Pyricularia oryzae and more than 80% in the assay with Botrytis cinerea.

In the case of `CCN(C)C=Nc1cc(C)c(Cc2cc(C)cc(F)c2)cc1Cl` [Compound 140, N′-(2-chloro-4-(3-fluoro-5-methylbenzyl)-5-methylphenyl)-N-ethyl-N-methylformimidamide], the inhibition of growth at 300 ppm with Colletotrichum capsici was more than 80%; in the assay on Rhizoctonia solani, more than 80%; in the assay on Alternaria solani it was more than 75%; with Pyricularia oryzae, more than 75%; in the assay with Botrytis cinerea it was more than 80%.

For the compound `CCN(C)C=Nc1cc(C)c(Cc2ccc(Cl)c(F)c2)cc1Cl` [Compound 95, N′-(2-chloro-4-(4-chloro-3-fluorobenzyl)-5-methylphenyl)-N-ethyl-N-methylformimidamide], the inhibition of growth at 300 ppm in the assay with Colletotrichum capsici was more than 80%; in the assay with Rhizoctonia solani it was more than 80%; with Alternaria solani it was more than 75%; in the assay on Pyricularia oryzae it was more than 75%; with Botrytis cinerea, more than 80%.

Take `CCN(C)C=Nc1cc(C)c(Cc2cccnc2)cc1Cl` [Compound 204, N′-(2-chloro-5-methyl-4-(pyridin-3-ylmethyl)phenyl)-N-ethyl-N-methylformimidamide]: the inhibition of growth at 300 ppm in the assay on Colletotrichum capsici is more than 80%; in the assay on Rhizoctonia solani, more than 80%; in the assay on Alternaria solani, more than 75%; with Pyricularia oryzae it was more than 75%; with Botrytis cinerea, more than 80%.

Regarding `CCN(C)C=Nc1cc(Cl)c(Cc2cccc(C)c2)cc1Cl` [Compound 141, N′-(2,5-dichloro-4-(3-methylbenzyl)phenyl)-N-ethyl-N-methylformimidamide], the inhibition of growth at 300 ppm is more than 80% in the assay on Rhizoctonia solani, more than 75% with Alternaria solani, more than 75% with Pyricularia oryzae and more than 80% with Botrytis cinerea.

In the case of `Cc1cc(N=CN(CC2CC2)C(C)C)c(C)cc1Cc1ccccc1F` [Compound 88, N-(cyclopropylmethyl)-N′-(4-(2-fluorobenzyl)-2,5-dimethylphenyl)-N-isopropylformimidamide], the inhibition of growth at 300 ppm with Rhizoctonia solani is more than 80%; with Alternaria solani it was more than 75%; in the assay with Pyricularia oryzae, more than 75%; in the assay on Botrytis cinerea, more than 80%.

As for `CCN(C)C=Nc1cc(Cl)c(Cc2ccccc2C)cc1Cl` [Compound 151, N′-(2,5-dichloro-4-(2-methylbenzyl)phenyl)-N-ethyl-N-methylformimidamide], the inhibition of growth at 300 ppm was more than 80% in the assay on Rhizoctonia solani, more than 75% with Alternaria solani, more than 75% with Pyricularia oryzae and more than 80% in the assay with Botrytis cinerea.

Regarding `Cc1cc(N=CN(CC2CC2)C(C)C)c(C)cc1Cc1ccccc1Cl` [Compound 89, N′-(4-(2-chlorobenzyl)-2,5-dimethylphenyl)-N-(cyclopropylmethyl)-N-isopropylformimidamide], the inhibition of growth at 300 ppm in the assay with Rhizoctonia solani is more than 80%; in the assay on Alternaria solani, more than 75%; in the assay on Pyricularia oryzae, more than 75%; in the assay with Botrytis cinerea it was more than 80%.

Take `CCN(C)C=Nc1cc(C(F)(F)F)c(Cc2cccc(Cl)c2)cc1C1CC1` [Compound 265, N′-(4-(3-chlorobenzyl)-2-cyclopropyl-5-(trifluoromethyl)phenyl)-N-ethyl-N-methylformimidamide]: the inhibition of growth at 300 ppm was more than 80% in the assay with Rhizoctonia solani, more than 75% in the assay with Alternaria solani, more than 75% in the assay on Pyricularia oryzae and more than 80% in the assay with Botrytis cinerea.

On to `CCN(C)C=Nc1cc(C)c(Cc2cccc(C)c2)cc1S(C)(=O)=O` [Compound 273, N-ethyl-N-methyl-N′-(5-methyl-4-(3-methylbenzyl)-2-(methylsulfonyl)phenyl)formimidamide], for which the inhibition of growth at 300 ppm in the assay with Rhizoctonia solani was more than 80%; with Alternaria solani, more than 75%; in the assay with Pyricularia oryzae, more than 75%; in the assay on Botrytis cinerea it was more than 80%.
